Active and inactive are the calls of the source.
Legend:
SN12K1 = assay: cells; format: functional; settings: Homo sapiens
P388/ADR = assay: cells; format: functional; settings: Mus musculus
P388 = assay: cells; format: functional; settings: Mus musculus
[1] = intracellular Trypanosoma cruzi inhibitors in host cells – cell-based, plate reader, cherry-pick samples, set 3, dose response (AID 651818); format: functional;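 further: compounds incubated with infected cells for about four days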
Protein skinhead-1 = target: T1, Protein skinhead-1 (Caenorhabditis elegans, UniProt P34707); format: functional
T1 sequence (P34707 whole entry): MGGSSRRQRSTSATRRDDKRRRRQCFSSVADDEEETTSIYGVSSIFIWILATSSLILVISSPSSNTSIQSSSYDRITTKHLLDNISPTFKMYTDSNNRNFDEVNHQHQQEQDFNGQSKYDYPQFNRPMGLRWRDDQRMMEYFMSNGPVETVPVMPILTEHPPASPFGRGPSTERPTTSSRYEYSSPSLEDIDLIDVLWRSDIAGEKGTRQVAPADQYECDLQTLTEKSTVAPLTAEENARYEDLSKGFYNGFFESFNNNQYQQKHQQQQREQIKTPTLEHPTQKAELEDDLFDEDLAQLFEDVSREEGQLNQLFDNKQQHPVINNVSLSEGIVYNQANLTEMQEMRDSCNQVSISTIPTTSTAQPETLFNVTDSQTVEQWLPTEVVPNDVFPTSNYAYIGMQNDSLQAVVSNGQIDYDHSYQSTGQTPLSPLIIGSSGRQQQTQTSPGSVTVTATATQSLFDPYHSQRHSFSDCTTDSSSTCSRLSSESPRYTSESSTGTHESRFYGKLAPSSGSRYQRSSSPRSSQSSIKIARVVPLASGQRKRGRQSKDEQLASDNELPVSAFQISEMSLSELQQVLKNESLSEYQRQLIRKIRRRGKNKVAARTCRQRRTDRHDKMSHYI

[2] = target: FAD-linked sulfhydryl oxidase ALR (Homo sapiens, UniProt P55789); assay: inhibitors of human ALR sulfhydryl oxidase, dose response, biochemical, H2O2 detection, luminescence, cherry-pick (AID 493248)
Chain of FAD-linked sulfhydryl oxidase ALR (P55789 whole entry): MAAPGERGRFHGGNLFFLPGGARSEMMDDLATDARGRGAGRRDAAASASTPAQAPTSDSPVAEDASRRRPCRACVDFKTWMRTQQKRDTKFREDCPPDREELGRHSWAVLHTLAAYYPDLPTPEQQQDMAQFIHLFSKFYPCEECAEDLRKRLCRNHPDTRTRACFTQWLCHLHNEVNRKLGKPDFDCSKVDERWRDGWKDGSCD

| Structure (SMILES) | GI50 (SN12K1) | GI50 (P388/ADR) | GI50 (P388) | AC50 [1] | other results |
| --- | --- | --- | --- | --- | --- |
| O=C1C(Br)=CC2([N+](=O)[O-])CCNC3=C(C4=NCCc5c[nH]c(c54)C3=O)C2=C1Br (stereo not given) | 3.3 µM (inactive) | 0.579 µM (active) | 0.317 µM (active) | – | – |
| Cc1c2cnccc2c(C)c2c1c1ccccc1n2CC1CO1 (stereo not given) | 0.719 µM (active) | 0.065 µM (active) | 0.0291 µM (active) | – | – |
| C[C@H](CO)N1C[C@H](C)[C@@H](CN(C)Cc2ccc(C(=O)Nc3ccccc3N)cc2)Oc2c(NS(=O)(=O)c3ccccc3)cccc2C1=O | – | – | – | 4.71 µM (active) | – |
| Cc1noc(C)c1S(=O)(=O)Nc1cccc2c1O[C@H](CN(C)Cc1ccc(C(=O)Nc3ccccc3N)cc1)[C@H](C)CN([C@@H](C)CO)C2=O | – | – | – | 2.03 µM (active) | – |
| C[C@H]1CN([C@@H](C)CO)C(=O)c2cccc(NC(=O)CCCCCC(=O)Nc3ccccc3N)c2O[C@H]1CN(C)Cc1ccc(Cl)c(Cl)c1 | – | – | – | 3.18 µM (active) | – |
| C[C@@H]1CN([C@@H](C)CO)C(=O)c2cccc(NC(=O)CCCCCC(=O)Nc3ccccc3N)c2O[C@H]1CN(C)Cc1ccccc1 | – | – | – | 2.43 µM (active) | – |
| C[C@@H]1CCCCO[C@H](CN(C)C(=O)Nc2ccc(C(F)(F)F)cc2)[C@@H](C)CN([C@H](C)CO)C(=O)c2cc(NS(=O)(=O)c3ccc(Cl)cc3)ccc2O1 | – | – | – | 4.76 µM (active) | – |
| C[C@@H]1CN([C@@H](C)CO)C(=O)c2cccc(NC(=O)Nc3ccc4c(c3)OCO4)c2O[C@@H]1CN(C)Cc1ccc(Oc2ccccc2)cc1 | – | – | – | 3.77 µM (active) | – |
| C[C@H](CO)N1C[C@H](C)[C@H](CN(C)Cc2ccc(C(=O)Nc3ccccc3N)cc2)Oc2c(NC(=O)Nc3ccc(F)cc3)cccc2C1=O | – | – | – | 1.06 µM (active) | – |
| C[C@H](CO)N1C[C@H](C)[C@H](CN(C)S(=O)(=O)c2ccc(F)cc2)Oc2ccc(NC(=O)Nc3ccc(C(F)(F)F)cc3)cc2CC1=O | – | – | – | 2.56 µM (active) | – |
| COC(=O)c1cccc(N[C@@H]2c3cc4c(cc3C(c3cc(OC)c(O)c(OC)c3)[C@H]3C(=O)OCC32)OCO4)c1 (stereo not given in full) | 0.23 µM (active) | 0.271 µM (active) | 0.0103 µM (active) | – | – |
| O=[N+]([O-])c1cccc(/C=C/c2ccccn2)c1 | – | – | – | – | IC50 (Protein skinhead-1): 39.8 µM (active) |
| O=C1CC(=O)N(c2ccccc2)N1c1ccccc1 | – | – | – | – | AC50 [2]: 4.37 µM (active) |
| O=C1NC(=O)C2C3C=CC(C12)C1C2C(=O)NC(=O)C2C31 (stereo not given) | 85.3 µM (inactive) | 122 µM (inactive) | 21 µM (inactive) | – | – |
| CCOC(=O)NC1=C(N2CC2)C(=O)C(NC(=O)OCC)=C(N2CC2)C1=O [DIAZIQUONE] | 2.94 µM (inactive) | 2.72 µM (inactive) | 1.77 µM (inactive) | – | – |

Reference: ChEMBL document CHEMBL1201862, “PubChem BioAssay data set” (2004)
